From US20250034211A1, “C-TERMINAL EXTENDED P53 ACTIVATOR CROSSLINKED PEPTIDOMIMETIC MACROCYCLES AGAINST MDM2/MDMX” (Merck Sharp & Dohme LLC, priority 2021, published 2025)
≈ marks a conversion by molar mass, not a printed value. Read-outs that look alike come from different tables or passages of the source. Where a SMILES comes first, the peptide text is derived from it. Bridges are numbered along the chain shown (N, C = ends). [ ]: non-standard residue; d: D form. Lys(N3) = [N-]=[N+]=NCCCC[C@H](N)C(=O)O; Gla = N[C@@H](CC(C(=O)O)C(=O)O)C(=O)O; R8 = C=CCCCCCC[C@@](C)(N)C(=O)O; Cba = N[C@@H](CC1CCC1)C(=O)O; S5 = C=CCCC[C@](C)(N)C(=O)O; Aib = CC(C)(N)C(=O)O; βAla = NCCC(=O)O

Assays:
[1] = target: T1, MDM2 (1-125; SEQ ID NO 14) (Homo sapiens, UniProt Q00987); assay: MDM2 binding assay (fluorescence anisotropy competition, FP)
T1 construct: GST (N); His6 (internal); TEV cleavage site ENLYFQG (internal); made in house; host or cells: E. coli BL21 (DE3) Rosetta T1R
Protocol: [P] is the protein concentration (MDM2), [L] is the labeled peptide concentration, r is the anisotropy measured, r0 is the anisotropy of the free peptide, rb is the anisotropy of the MDM2-FAM-labeled peptide complex, Kd is the dissociation constant, [L]t is the total FAM labeled peptide concentration, and [P]t is the total MDM2 concentration. […] The competing molecules were then titrated against the complex of the FAM-labeled peptide and protein. Apparent Kd values were determined by fitting the experimental data to the equations shown below:
[L]st and [L]t denote labeled ligand and total unlabeled ligand input concentrations, respectively. Kd2 is the dissociation constant of the interaction between the unlabeled ligand and the protein. In all competition experiments, it is assumed that [P]t>[L]st, otherwise considerable amounts of free labeled ligand would always be present and would interfere with measurements. […] The FAM-labeled peptide was dissolved in dimethyl sulfoxide (DMSO) at 1 mM and diluted into experimental buffer. Readings were carried out with an Envision Multilabel Reader (PerkinElmer). […] All titrations were carried out in triplicate. Curve-fitting was carried out using Prism 4.0 (GraphPad). […] Negative control titrations of the ligands under investigation were also carried out with the fluorescently labeled peptide (in the absence of MDM2) to ensure no interactions were occurring between the ligands and the FAM-labeled peptide.

HCT116 cells = assay: Lactate dehydrogenase release assay (LDH); format: cell-based
Protocol: HCT116 cells were seeded into a 384-well plate at a density of 8000 cells per well. Cells were maintained in McCoy's 5A Medium with 10% fetal bovine serum (FBS), Blasticidin and Penicillin/Streptomycin. The cells were incubated overnight followed by the removal of cell media and the addition of Opti-MEM Medium without FBS. Cells were then treated with peptides for 4/16 hours in Opti-MEM either in 10% FBS or serum free. Final concentration of DMSO was 0.5%. Lactate dehydrogenase release was detected using CytoTox-ONE Homogenous Membrane Integrity Assay Kit (Promega) as per manufacturer's instructions. Measurements were carried out using Tecan plate reader. Maximum LDH release was defined as the amount of LDH released induced by the lytic peptide (iDNA79) and used to normalize the results.

[2] = system: Jump-In T-REx CHO-K1 BLA cells; assay: Tetracycline beta-lactamase reporter gene assay (counter screen); format: cell-based
Protocol: Based on Jump-In™ T-REx™ CHO-K1 BLA cells and contain a stably integrated β-lactamase under the control of an inducible CMV promoter. Cells were seeded into a 384-well plate a density of 4000 cells per well. Cells were maintained in Dulbecco's Minimal Eagle Medium (DMEM) with 10% fetal bovine serum (FBS), Blasticidin and Penicillin/Streptomycin. The cells were incubated for 24 hours, followed by cell media removal and replacement with Opti-MEM either containing 10% FBS or 0% FBS. Peptides were then dispensed to each well using a liquid handler, ECHO 555 and incubated for 4/16 hours. Final working concentration of DMSO was 0.5%. β-Lactamase activity was detected using the ToxBLAzer Dual Screen (Invitrogen) as per manufacturer's instructions. Measurements were carried out using Envision multiplate reader (Perkin Elmer). Counter Screen activity was defined as the amount of 0-lactamase activity induced by tetracycline.

[3] = Circular dichroism (CD) helicity; format: physicochemical
Protocol: The dried peptide was reconstituted in a buffer containing 1 mM HEPES pH 7.4 and 5% methanol to a concentration of 1 mM. The peptide sample was placed in a quartz cuvette with a path length of 0.2 cm and a CD spectrum was recorded from 300 to 190 nm at 25° C. using the Chirascan-plus qCD machine (Applied Photophysics). The actual concentration of the peptide was determined by the absorbance of the peptide at […]. An estimate of the secondary structure components of the peptide was carried out by converting the CD spectrum to mean residue ellipticity before deconvoluting using the CDNN software (distributed by Applied Photophysics). All experiments were done in duplicate.

p53 null Ca Ski = details: for % inhibition at maximum concentration in p53 null negative control cell line: maximum assay concentration (50 uM); for p53 null Ca Ski proliferation % Max: 72 h, 10% serum
Solubility (PBS, pH 7) = details: for solubility: PBS, pH 7
[4] = system: p53 (HCT116 cells stably transfected with a p53 responsive β-lactamase reporter); assay: p53 beta-lactamase reporter gene cellular functional assay; format: cell-based
Protocol: HCT116 cells were stably transfected with a p53 responsive β-lactamase reporter, and were seeded into a 384-well plate at a density of 8,000 cells per well. Cells were maintained in McCoy's 5A Medium with 10% fetal bovine serum ([…]), Blasticidin and Penicillin/Streptomycin. The cells were incubated overnight and followed by removal of cell growth media and replaced with Opti-MEM either containing 0% FBS or 10% FBS. Peptides were then dispensed to each well using a liquid handler, ECHO 555 and incubated for 4/16 hours. Final working concentration of dimethyl sulfoxide (DMSO) was 0.5%. β-Lactamase activity was detected using the ToxBLAzer Dual Screen (Invitrogen) as per manufacturer's instructions. Measurements were done using Envision multiplate reader (Perkin-Elmer). Maximum p53 activity was defined as the amount of β-lactamase activity induced by 50 μM azide-ATSP-7041 (stapled p53 peptide; Aileron Therapeutics, Inc.). This was determined as the highest amount of p53 activity induced by azide-ATSP-7041 by titration on HCT116 cells.

T1 sequence (Q00987 with tags, fused parts or gaps): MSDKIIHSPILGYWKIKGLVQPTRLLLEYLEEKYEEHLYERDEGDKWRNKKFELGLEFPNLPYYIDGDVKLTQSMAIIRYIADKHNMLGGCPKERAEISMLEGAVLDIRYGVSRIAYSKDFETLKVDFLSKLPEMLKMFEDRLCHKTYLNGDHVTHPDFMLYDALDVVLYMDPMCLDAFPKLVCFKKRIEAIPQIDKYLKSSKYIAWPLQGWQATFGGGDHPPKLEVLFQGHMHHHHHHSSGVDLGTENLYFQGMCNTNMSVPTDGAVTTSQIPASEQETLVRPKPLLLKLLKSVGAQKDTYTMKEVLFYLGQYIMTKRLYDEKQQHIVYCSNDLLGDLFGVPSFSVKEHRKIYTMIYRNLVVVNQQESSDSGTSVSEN

Row | SMILES | Kd [1] [µM] | EC50 (HCT116 cells; 0% FBS, 4 h) [µM] | EC50 (HCT116 cells; 10% FBS, 16 h) [µM] | EC50 ([2]; 0% FBS, 4 h) [µM] | EC50 ([2]; 10% FBS, 16 h) [µM] | CD (% helicity) [3] [%] | % inhibition at maximum concentration in p53 null negative control cell line (p53 null Ca Ski) [%] | logD (HPLC LogD) | solubility (in words) (Solubility (PBS, pH 7)) | solubility (Solubility (PBS, pH 7)) [µM] | EC50 ([4]; 10% serum at 16 hours) [µM] | HCT116 proliferation % Max (HCT116; 72 h, 10% serum) [%] | fold improvement in HTC116 cell proliferation assay (HCT116; as compared to Macrocycle 3) | EC50 (HCT116; read-out: HCT116 proliferation EC50, 72 h, 10% serum) [µM] | p53 null Ca Ski proliferation % Max (p53 null Ca Ski) [%] | chromatographic logD (HPLC LogD) | EC50 (HCT116; read-out: cellular efficacy in cell proliferation HTC116 p53 positive control cell lines) [µM] | EC50 (p53 null Ca Ski; read-out: EC50 in p53 null negative control cell line) [µM] | EC50 ([4]; 0% serum at 4 hours) [µM]
1 | CC(=O)N[C@@H](CCCCN=[N+]=[N-])C(=O)NCCC(=O)N[C@@H](CC(C)C)C(=O)N[C@H](C(=O)N[C@@H](Cc1ccccc1)C(=O)N[C@]1(C)CCCCCCC=CCCC[C@@](C)(C(=O)N[C@@H](C)C(=O)N[C@@H](C)C(=O)N[C@@H](Cc2ccccc2)C(=O)NC(C)(C)C(=O)N[C@@H](C)C(=O)N[C@@H](C)C(N)=O)NC(=O)[C@H](CC2CCC2)NC(=O)[C@H](CCC(N)=O)NC(=O)[C@H](C)NC(=O)[C@H](Cc2c[nH]c3ccccc23)NC(=O)[C@H](Cc2ccc(O)cc2)NC(=O)[C@H](CCC(=O)O)NC1=O)[C@@H](C)O [Macrocycle 8, Ac-K(N3)-betaAla-L-T-F-X1a-E-Y-W-A-Q-Cba-X2a-AAF-Aib-AA-NH2(olefinstaple from X1ato X2a)] (Ac-[Lys(N3)][βAla]LTF[R8]EYWAQ[Cba][S5]AAF[Aib]AA-NH2; staple 6-13) | 0.0074 | 16.7 | > 50 | > 50 | > 50 | 35 |  |  |  |  |  |  |  |  |  |  |  |  | 
2 | CC(=O)N[C@@H](CCCCN=[N+]=[N-])C(=O)NCCC(=O)N[C@@H](CC(C)C)C(=O)N[C@H](C(=O)N[C@@H](Cc1ccccc1)C(=O)N[C@]1(C)CCCCCCC=CCCC[C@@](C)(C(=O)N[C@@H](C)C(=O)N[C@@H](C)C(=O)N[C@@H](CCC(=O)O)C(=O)N[C@@H](C)C(=O)N[C@@H](C)C(=O)N[C@H](C)C(N)=O)NC(=O)[C@H](CC2CCC2)NC(=O)[C@H](CCC(N)=O)NC(=O)[C@H](C)NC(=O)[C@H](Cc2c[nH]c3ccccc23)NC(=O)[C@H](Cc2ccc(O)cc2)NC(=O)[C@H](CCC(=O)O)NC1=O)[C@@H](C)O [Macrocycle 10, Ac-K(N3)-betaAla-L-T-F-X1a-E-Y-W-A-Q-Cba-X2a-AAEAA-(D-Ala)-NH2(olefinstaple from X1ato X2a)] (Ac-[Lys(N3)][βAla]LTF[R8]EYWAQ[Cba][S5]AAEAA[dA]-NH2; staple 6-13) | 0.0031 | > 50 | > 50 |  |  |  | −18 | 2.14 | excellent solubility | 154 (≈ 343 µg/mL) |  |  |  |  |  |  |  |  | 
3 | CC(=O)N[C@@H](CCCCN=[N+]=[N-])C(=O)NCCC(=O)N[C@@H](CC(C)C)C(=O)N[C@H](C(=O)N[C@@H](Cc1ccccc1)C(=O)N[C@]1(C)CCCCCCC=CCCC[C@@](C)(C(=O)N[C@@H](CC(C(=O)O)C(=O)O)C(=O)N[C@@H](C)C(=O)N[C@@H](C)C(=O)N[C@@H](C)C(=O)N[C@@H](C)C(=O)N[C@@H](C)C(N)=O)NC(=O)[C@H](CC2CCC2)NC(=O)[C@H](CCC(N)=O)NC(=O)[C@H](C)NC(=O)[C@H](Cc2c[nH]c3ccccc23)NC(=O)[C@H](Cc2ccc(O)cc2)NC(=O)[C@H](CCC(=O)O)NC1=O)[C@@H](C)O [Macrocycle 11, Ac-K(N3)-betaAla-L-T-F-X1a-E-Y-W-A-Q-Cba-X2a-(Gla)AAAAA-NH2(olefinstaple from X1ato X2a)] (Ac-[Lys(N3)][βAla]LTF[R8]EYWAQ[Cba][S5][Gla]AAAAA-NH2; staple 6-13) | 0.00032 | > 50 | > 50 | > 50 | > 50 |  | −18 |  | excellent solubility | 163 (≈ 370 µg/mL) | 0.527 | 73 | at least 2 fold | 0.79 | −18 | 2.25 |  |  | 
4 | CC(=O)N[C@@H](CCCCN=[N+]=[N-])C(=O)NCCC(=O)N[C@@H](CC(C)C)C(=O)N[C@H](C(=O)N[C@@H](Cc1ccccc1)C(=O)N[C@]1(C)CCCCC#CC#CCCC[C@@](C)(C(=O)N[C@@H](C)C(=O)N[C@@H](C)C(=O)N[C@@H](C)C(=O)N[C@@H](C)C(=O)N[C@@H](C)C(=O)N[C@@H](C)C(N)=O)NC(=O)[C@H](CC2CCC2)NC(=O)[C@H](CCC(N)=O)NC(=O)[C@H](C)NC(=O)[C@H](Cc2c[nH]c3ccccc23)NC(=O)[C@H](Cc2ccc(O)cc2)NC(=O)[C@H](CCC(=O)O)NC1=O)[C@@H](C)O [Macrocycle 12, Ac-K(N3)-betaAla-L-T-F-X1b-E-Y-W-A-Q-Cba-X2b-AAAAAA-NH2 (di-alkyne staple from X1b to X2b)] |  | > 50 | > 50 | > 50 | > 50 |  | 3 |  |  |  |  | 72 |  |  | 3 | 2.69 | 0.124 | > 50 | 
5 | CC(=O)N[C@@H](CCCCN=[N+]=[N-])C(=O)NCCC(=O)N[C@@H](CC(C)C)C(=O)N[C@H](C(=O)N[C@@H](Cc1ccccc1)C(=O)N[C@]1(C)CCCCCCC=CCCC[C@@](C)(C(=O)N[C@@H](C)C(=O)N[C@@H](C)C(=O)N[C@@H](C)C(N)=O)NC(=O)[C@H](CC2CCC2)NC(=O)[C@H](CCC(N)=O)NC(=O)[C@H](C)NC(=O)[C@H](Cc2c[nH]c3ccccc23)NC(=O)[C@H](Cc2ccc(O)cc2)NC(=O)[C@H](CCC(=O)O)NC1=O)[C@@H](C)O [Reference Macrocycle 1, Ac-K(N3)-betaAla-L-T-F-X1a-E-Y-W-A-Q-Cba-X2a-AAA-NH2 (olefin staple from X1a to X2a), reference compound] (Ac-[Lys(N3)][βAla]LTF[R8]EYWAQ[Cba][S5]AAA-NH2; staple 6-13) | 0.036 | > 50 |  | > 50 |  |  |  | 2.93 |  | 108 (≈ 211 µg/mL) | 0.847 |  |  |  |  |  |  |  | 0.339
